Reference: PMC5587768, “Ligand activation induces different conformational changes in CXCR3 receptor isoforms as evidenced by plasmon waveguide resonance (PWR)” (Scientific Reports, 2017)
Where “and” joins values, the source holds several entries; their conditions need not be identical. Equal values may be shown once.

Experiments:
CXCR3-A [1] = biological target: T1, CXCR3-A (Homo sapiens, UniProt P49682); test: Plasmon waveguide resonance (PWR) on HEK-CXCR3-A cell membrane fragments; assay type: binding; conditions: for Kd: HEK-CXCR3-A cell fragments, incremental ligand addition, hyperbolic fit; for Difference in KD between CXCR3-A and CXCR3-B (higher affinity for CXCR3-A): KD CXCR3-B versus KD CXCR3-A
T1 construct: The coding regions of human CXCR3-A or CXCR3-B cDNA; expressed in transfected cells; host or cells: HEK-293, stably transfected (HEK-CXCR3-A)
T1 sequence (P49682 1-368): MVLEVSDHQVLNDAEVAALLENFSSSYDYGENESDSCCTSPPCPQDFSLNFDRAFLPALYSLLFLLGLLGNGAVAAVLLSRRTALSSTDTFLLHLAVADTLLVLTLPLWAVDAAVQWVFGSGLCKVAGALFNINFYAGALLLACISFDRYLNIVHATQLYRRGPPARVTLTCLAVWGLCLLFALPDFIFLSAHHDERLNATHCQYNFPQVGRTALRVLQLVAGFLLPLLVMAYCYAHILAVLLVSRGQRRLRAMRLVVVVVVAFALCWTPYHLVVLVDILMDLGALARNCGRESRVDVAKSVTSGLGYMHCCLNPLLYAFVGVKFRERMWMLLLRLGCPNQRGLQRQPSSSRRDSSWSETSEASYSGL
Text: (§1) Ligand-mediated activation of CXCR3 was studied by PWR and flow cytometry measuring calcium flux. The former technique allows to determine the affinity, ligand-binding kinetics and anisotropy of the events occurring at the sensor surface. This technique gives the possibility of following resonance with two types of polarizations, p- and s-polarizations. PWR can be applied both to artificial lipid model systems with reconstituted receptors or to cell fragments[27]–[34]. In the present study, cell membrane fragments from cells expressing the CXCR3-A and CXCR3-B receptors were immobilized on the PWR sensor which is composed of a prism coated with a silver layer and overcoated with a silica layer. The prism is pre-treated with polylysine to promote cell adhesion by electrostatic interactions between the negative charges provided by the cell surface glycosaminoglycans (GAGs) and the positive charges of polylysine. The quality of HEK-CTRL, HEK-CXCR3-A and HEK-CXCR3-B membrane fragments was verified by confocal microscopy by visualizing the GFP-tagged receptors using glass slides of the same material (silica) than the outer layer of the sensor surface (Fig. 1A). The presence of fluorescent membrane fragments on the glass slide of few μm were evidenced in agreement with reported literature.
(§2) In contrast, membrane fragments of cells expressing either CXCR3-A or CXCR3-B responded to ligand stimulation in a saturable manner (Fig. 2; Fig. S3). […] PWR is sensitive to both, mass and structural changes. Inasmuch as the ligand is far too small to contribute to a mass change by itself, the PWR spectral changes observed correspond to ligand-induced receptor conformational changes (upon formation of the R/L complex). From the saturable and hyperbolic binding response, a dissociation constant was determined. The cell fragments are quite stable after sensor immobilization as no alterations in the spectra were observed after repetitive and extensive washing with buffer. Furthermore, lipids and receptors are oriented with their long axis along the p-polarization axis as shown by the anisotropic response. Thus, spectral modifications observed in p-polarization reflect changes along the receptor main axis, while modifications in s-polarization reflect changes along the receptor minor axis (Fig. S2). In HEK-CXCR3-A cells, agonist binding led to an increase in the resonance minimum position for both p- and s-polarization. A positive shift in the resonance angle is correlated with an increase in the refractive index due to a mass increase in the system. Since the ligand, by itself, is too small to be able to produce such spectral changes, the response can only be attributed to conformational change in the receptor which is reflected by an increase in mass density. […] The negative shift, while of considerably smaller magnitude, results from a slight decrease in the mass density in the system and can be attributed to a conformational change leading to a looser and less ordered arrangement of the TM helices accompanied by a slight decrease in length. Thus, agonist-mediated CXCR3 activation leads to opposite conformational changes depending on the CXCR3 isoform.
(§3) PWR measurements were performed in a homemade instrument equiped with a He-Ne laser, with a fixed wavelenght in the visible region (λ = 632 nm; Melles Griot), a rotating table allowing the incident angle to be changed by steps ≤1 mdeg (thus resolution being on that order; Newport) and a photodiode detector (Hamamatsu) to measure the reflected light as a function of the incident angle. The polarization angle of the incident beam is placed at 45° allowing both p- and s-polarized spectra to be obtained within the same angular scan. The sensor consisted in a BK-7 prism coated with silver and silica (to support waveguide modes)[36]. All measurements were performed at 22 °C in a temperature controlled room. More details about this technology can be found. […]

CXCR3-B [2] = biological target: T2, CXCR3-B (Homo sapiens, UniProt P49682); test: Plasmon waveguide resonance (PWR) on HEK-CXCR3-B cell membrane fragments; assay type: binding; conditions: for Kd: HEK-CXCR3-B cell fragments, incremental ligand addition, hyperbolic fit
T2 construct: The coding regions of human CXCR3-A or CXCR3-B cDNA; expressed in transfected cells; host or cells: HEK-293, stably transfected (HEK-CXCR3-B)
T2 sequence (P49682 1-415 isoform P49682-2): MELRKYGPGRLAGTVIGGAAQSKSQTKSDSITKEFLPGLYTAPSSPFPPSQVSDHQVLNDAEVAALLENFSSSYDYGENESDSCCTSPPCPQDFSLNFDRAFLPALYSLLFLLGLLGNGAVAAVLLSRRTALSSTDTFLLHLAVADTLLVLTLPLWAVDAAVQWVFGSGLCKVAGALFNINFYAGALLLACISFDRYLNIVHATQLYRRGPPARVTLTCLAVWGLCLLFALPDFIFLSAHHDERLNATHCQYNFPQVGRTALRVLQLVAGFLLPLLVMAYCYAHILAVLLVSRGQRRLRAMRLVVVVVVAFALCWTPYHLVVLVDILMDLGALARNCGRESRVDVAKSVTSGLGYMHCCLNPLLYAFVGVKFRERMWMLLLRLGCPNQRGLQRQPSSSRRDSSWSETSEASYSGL
Text: as §1, §2, §3

HEK-CTRL cell fragments = test: Plasmon waveguide resonance (PWR) on HEK-CTRL cell fragments (empty GFP vector control); assay type: binding, human
Text: as §2
as §3, with “found. The protocol for adhesion of cell fragments on silica (glass slides or PWR sensor) was adapted from reported work from Vogel and collaborators.” for “found.”

CXCR3-A [3] = biological target: T1, CXCR3-A; test: Calcium flux by flow cytometry in HEK-CXCR3-A cells; assay type: cell-based
Protocol: (§4) Human Embryonic Kidney (HEK-293) cell lines, were regularly tested for contamination and were all mycoplasma-free. Cells were cultured in Dulbecco’s Modified Eagle’s medium (DMEM, Thermo Fisher Scientific) supplemented with 10% Fetal Bovine Serum (FBS), 5% antibiotics (Penicillin and […]) and 5% L-glutamine. All cells were grown at 37 °C, 5% CO2 and split at 70–90% of confluence with 0.25% Trypsin. Cell transfection was performed using Effecten kit (Qiagen) according to the manufacter’s instruction. HEK-CTRL (HEK-293 stably transfected with empty pEGFPN2 vectors) HEK-CXCR3-A cells and HEK-CXCR3-B (HEK-293 stably transfected with pEGFPN2 + CXCR3-A or pEGFPN2 + CXCR3-B vectors, respectivly) were grown in the presence of Zeocin (200 µg/ml). For inhibition experiments, cells were pretreated 1 h with the CXCR3 antagonist SCH546738 at dose-dependant concentration. SCH546738 is a small molecular lipophilic molecule, with the chemical formula: C23H31Cl2N7O. […] For this reason a concentration range from 0.5 to 2.2 nM has been used.
(§5) Intracellular calcium concentration was measured using Calcium Assay Kit (BD 640176) according to the manufacter’s procedure on an AccuriC6 flow cytometer equipped with BD AccuriC6 software (BD, San Jose, CA). Cells were placed in suspension and 1X Dye loading solution was added for 20 min at 37 °C. Calcium concentration was then recorded for 5 min on the AccuriC6 flow cytometer. CXCR3 agonist stimulation was performed after 2 min of recording and intracellular calcium increase was visualized. Calcium concentration after stimulation was normalized by calcium concentration before stimulation. Cells without 1X dye loading solution were used as a negative control in order to quantify the background level.

CXCR3-B [4] = biological target: T2, CXCR3-B; test: Calcium flux by flow cytometry in HEK-CXCR3-B cells; assay type: cell-based
Protocol: as §4, §5

CXCR3 = conditions: cited from earlier work

## NC(N)=NCCC[C@H](NC(=O)[C@@H]1Cc2ccccc2CN1C(=O)CCC(=O)c1ccccc1)C(=O)NCC1CCCCC1 [PS372424]
CXCR3-A [1]; HEK-CXCR3-A, p-polarization, incremental addition to saturation
  Shift in resonance minimum position, P-pol: 16 +/- 12 mdeg
CXCR3-A [1]; HEK-CXCR3-A, s-polarization, incremental addition to saturation
  Shift in resonance minimum position, S-pol: 4 +/- 1 mdeg
CXCR3-A [1]; PWR
  Kd: 40 nM
  Difference in KD between CXCR3-A and CXCR3-B (higher affinity for CXCR3-A): 10 fold
CXCR3-B [2]; HEK-CXCR3-B, p-polarization, incremental addition to saturation
  Shift in resonance minimum position, P-pol: -5 +/- 1 mdeg
CXCR3-B [2]; HEK-CXCR3-B, s-polarization, incremental addition to saturation
  Shift in resonance minimum position, S-pol: -4 +/- 1 mdeg
CXCR3-B [2]; PWR
  Kd: 450 nM
HEK-CTRL cell fragments; HEK-CTRL, p-polarization
  Shift in resonance minimum position, P-pol: 0 +/- 1 mdeg
HEK-CTRL cell fragments; HEK-CTRL, s-polarization
  Shift in resonance minimum position, S-pol: 0 +/- 1 mdeg
HEK-CTRL cell fragments; PWR, HEK-CTRL cell fragments
  KD: No binding
CXCR3-A [3]; HEK-CXCR3-A cells
  Intracellular calcium flux after agonist stimulation: increase intracellular calcium flux
CXCR3-B [4]; HEK-CXCR3-B cells
  Intracellular calcium flux after agonist stimulation: increase intracellular calcium flux
CXCR3; isoforms not distinguished, read-out: IC50 reported for binding to CXCR3
  IC50: 42 nM

## CC[C@H]1CN(c2nc(N)c(C(N)=O)nc2Cl)CCN1C1CCN(Cc2ccc(Cl)cc2)CC1 [SCH546738]
CXCR3-A [1]; PWR
  Kd: 0.5 nM
  Difference in KD between CXCR3-A and CXCR3-B (higher affinity for CXCR3-A): 3 fold
CXCR3-A [1]; PWR, HEK-CXCR3-A, SCH546738 1 nM
  Agonist binding after SCH546738 at 1 nM: totally abrogated
CXCR3-A [1]; PWR, HEK-CXCR3-A, SCH546738 2.2 nM, 1 h
  Agonist binding after SCH546738 at saturating concentration: completely abolished
CXCR3-B [2]; PWR
  Kd: 1.5 nM
CXCR3-B [2]; PWR, HEK-CXCR3-B, SCH546738 1 nM
  Agonist binding after SCH546738 at 1 nM: binding was still observed
CXCR3-B [2]; PWR, HEK-CXCR3-B, SCH546738 2.2 nM, 1 h
  Agonist binding after SCH546738 at saturating concentration: completely abolished
HEK-CTRL cell fragments; HEK-CTRL cell fragments
  PWR response of control cell fragments (non-specific binding): did not respond
CXCR3-A [3]; HEK-CXCR3-A cells pretreated with SCH546738
  Receptor activation by agonist (calcium flux) after SCH546738 pretreatment: no longer activated
CXCR3-A [3]; at 1 nM
  Inhibition of CXCR3-A activation (calcium flux): more than 70%
CXCR3-B [4]; HEK-CXCR3-B cells pretreated with SCH546738
  Receptor activation by agonist (calcium flux) after SCH546738 pretreatment: no longer activated
CXCR3-B [4]; at 1 nM
  Inhibition of CXCR3-B activation (calcium flux): 25%
CXCR3; other reports and methods, read-out: Affinity to CXCR3 reported
  Kd: 0.8 to 2.2 nM and 0.4 to 2.2 nM
